{"source": "patent US11366103B2", "about": "“Multi-well micropatterning by ablation” (Massachusetts Institute of Technology, priority 2006, dated 2022)", "key": {"[1]": {"system": "CYP1A", "description": "Cultures were treated for 3-4 days before incubation with fluorometric or conventional CYP450 substrates. All data was normalized to vehicle-only controls (fold change of 1). […] Substrate/inhibitor combinations: BFC/ketoconazole (CYP3A4), MFC/sulfaphenazole (CYP2C9), Coumarin/methoxsalen (CYP2A6), and 7-Hydroxycoumarin/Salicylamide (Glucuronidation). […] Data were normalized to vehicle-only controls.\nStock solutions of prototypic CYP450 inducers (Sigma) were made in Dimethylsulfoxide (DMSO), except for Phenobarbital, which was dissolved in water. […] Control cultures were treated with vehicle (DMSO) alone for calculations of fold induction. To enable comparisons across inducers, DMSO levels were kept constant at 0.1% (v/v) for all conditions."}, "[2]": {"system": "micropatterned co-cultures of primary human hepatocytes and 3T3-J2 fibroblasts", "description": "Mitochondrial toxicity was evaluated using the MTT assay. […] All data were normalized to a vehicle-only control. […] Tissues were dosed repeatedly every 48 hours. All data was normalized to mitochondrial activity in untreated cultures (100% activity).\nIn order to assess the utility of micropatterned co-cultures for toxicity screening, the acute and chronic toxicity of model hepatotoxins was quantified. […] Establishment of liver tissue that is stable over several weeks is crucial for evaluating chronic toxicity due to repeated exposures.\nCultures were incubated with various concentrations of compounds dissolved in culture medium for 24 hours (acute toxicity) or extended time periods (chronic toxicity, 1-9 days). Cell viability was subsequently measured via the MTT (3-(4,5-dimethylthiazol-2-yl)-2,5-diphenyl tetrazolium bromide; Sigma) assay, which involves cleavage of the tetrazolium ring by mitochondrial dehydrogenase enzymes to form a purple precipitate. MTT was added to cells in DMEM without phenol red at a concentration of 0.5 mg/mL. After an incubation time of 1 hour, the purple precipitate was dissolved in a 1:1 solution of DMSO and Isopropanol. The absorbance of the solution was measured at 570 nm (SpectraMax spectrophotometer, Molecular Devices, Sunnyvale, Calif.)."}, "[3]": {"system": "co-cultures of primary rat hepatocytes and 3T3-J2 fibroblasts", "conditions": "for viability relative to untreated controls: 1 mM", "description": "Toxicity of pharmaceuticals due to chronic exposure is clinically relevant. Since hepatocyte culture models utilized in the pharmaceutical industry lose viability and phenotypic functions within a few days, toxicity due to repeated drug exposures over days or weeks cannot be evaluated. […] Co-cultures were incubated with varying doses of toxins dissolved in culture medium over several days. Mitochondrial activity (MTT assay, see methods) was evaluated at different time points to assess viability in co-cultures.\nPure hepatocyte monolayers rapidly lose phenotypic functions and thus represent an ‘unstable’ model of the liver. […] The objective here was to compare toxicity of model Hepatotoxins in pure hepatocyte monolayers and co-cultures. Pure hepatocyte monolayers (Day 2 of culture) or hepatocyte-fibroblast co-cultures (Day 13) prepared from the same rat liver were treated with Hepatotoxins for 24 hours, after which viability was assessed via the MTT assay.\nAll chemicals were purchased from Sigma. In order to evaluate the acute toxicity of compounds, cultures were incubated with various concentrations of compounds dissolved in culture medium for 24 hours. For chronic studies, culture media with fresh Hepatotoxins was added every 2 days. Cell viability at different time points was subsequently measured via the MTT assay."}, "[4]": {"system": "pure hepatocyte monolayers", "conditions": "rat, 24 h; for viability relative to untreated controls: 1 mM"}, "[5]": {"system": "CYP450 enzymes", "assay": "CYP450-mediated dealkylation of BFC and MFC in micropatterned rat co-cultures", "type": "in vitro ADME", "description": "Therefore, in order to improve the signal-to-noise ratio, levels of CYP1A was ‘induced’ by pre-incubating co-cultures with 3 μM 3-Methylcholanthrene (3-MC) for 3 days prior to assessment of substrate metabolism. […] ER and MR are fluorimetric substrates specific for CYP1A enzymes. […] Use of non-specific substrates provides for an ‘average’ value of CYP450 activity, and is useful to determine whether CYP450 enzymes are functional in a particular system. In FIG. 22A, co-cultures were able to successfully dealkylate BFC and MFC into 7-HFC. […] CYP450 enzymes are oxido-reductases that are part of the Phase I metabolic pathway in hepatocytes. The phase II family of enzymes, on the other hand, is typically involved in the conjugation of highly polar moieties (i.e. sulfate group, glucuronic acid) to xenobiotics to make them water-soluble for excretion out of the body via bile or through the kidneys. A useful substrate for evaluating conjugation reactions is the fluorescent substrate, 7-Hydroxycoumarin (7-HC), which gets modified to non-fluorescent compounds, 7-HC-Glucuronide and 7-HC-Sulfate. The level of conjugation can then be quantified by using bacterial-derived β-glucuronidase and aryl-sulfatase enzymes to ‘deconjugate’ the Phase II products and recover 7-HC fluorescence. In our micropatterned rat co-cultures, we observed time-dependent conjugation of 7-HC by Phase-II enzymes (FIG. 22B). […]"}, "[6]": {"system": "CYP1A2", "assay": "Dose and time-dependent CYP1A2 induction in micropatterned co-cultures", "conditions": "incubation for 1 or 3 days"}, "[7]": {"molecular_target": "T1, CYP2A6 (Homo sapiens, UniProt P11509)", "T1 sequence (P11509 1-494)": "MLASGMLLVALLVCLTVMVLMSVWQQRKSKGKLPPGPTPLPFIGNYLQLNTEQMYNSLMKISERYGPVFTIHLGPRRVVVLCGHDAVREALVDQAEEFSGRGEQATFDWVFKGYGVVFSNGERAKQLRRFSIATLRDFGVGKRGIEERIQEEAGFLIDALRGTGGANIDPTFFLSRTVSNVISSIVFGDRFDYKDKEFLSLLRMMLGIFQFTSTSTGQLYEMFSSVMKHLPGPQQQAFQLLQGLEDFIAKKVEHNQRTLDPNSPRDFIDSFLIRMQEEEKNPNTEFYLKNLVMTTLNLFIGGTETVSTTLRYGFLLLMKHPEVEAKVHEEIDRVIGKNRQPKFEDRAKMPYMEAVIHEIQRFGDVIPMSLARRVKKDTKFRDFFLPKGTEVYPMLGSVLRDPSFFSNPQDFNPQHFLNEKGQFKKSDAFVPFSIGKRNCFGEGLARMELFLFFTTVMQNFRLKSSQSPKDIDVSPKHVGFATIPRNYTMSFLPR"}, "[8]": {"system": "CYP2A", "assay": "Coumarin 7-hydroxylation in micropatterned rat co-cultures", "type": "in vitro ADME", "text": "(§1) FIGS. 33A-33C depict a comparison of Phase I- and Phase II-mediated substrate metabolism in human and rat co-cultures. Micropatterned cultures with either primary human or primary rat hepatocytes were created using the stencil-based process. Subsequent addition of 3T3-J2 fibroblasts created co-cultures. […] Data from a single representative day is shown.\n(§2) Significant variations in hepatocellular functions (i.e. CYP450 enzymes) across different species have been implicated in the inability of animal models to adequately predict adverse outcomes in clinical trials involving humans. Nonetheless, studies in live animals are required by the FDA since they provide valuable in vivo data in a preclinical setting. Therefore, the selection of an animal species (i.e. rat, mouse, monkey, guinea pig) in which the liver-specific metabolism and toxicity of a particular candidate drug are similar to that seen in humans is crucial for clinical success. In vitro human and animal models that closely resemble in-vivo functionality may find use in such a selection process. […] For instance, BFC was dealkylated in rat co-cultures at a rate (pmoles/min/10^6 cells) that was ˜18 fold greater than the rate seen in human co-cultures.\nSpent media was stored at −20° C."}, "[9]": {"molecular_target": "T2, CYP2A (Homo sapiens, UniProt P11509)", "T2 construct": "endogenous in cells; host or cells: primary human hepatocytes co-cultured with murine 3T3-J2 fibroblasts", "T2 sequence (P11509 1-494)": "T1 sequence (P11509 1-494)", "assay": "Coumarin 7-hydroxylation in micropatterned human co-cultures", "type": "in vitro ADME", "text": "as §1, §2"}, "[10]": {"system": "CYP3A", "assay": "Inhibition of BFC dealkylation in rat co-cultures", "conditions": "BFC in the presence of ketoconazole"}}, "note": "Read-outs that look alike come from different tables or passages of the source.", "data": [{"smiles": "COc1ccc2[nH]c([S+]([O-])Cc3ncc(C)c(OC)c3C)nc2c1", "note": "(centres unmarked) [Omeprazole]", "values": [{"measurement": "CYP1A induction, effectiveness in human over rat models", "setting": "[1]", "value": 8, "unit": "fold"}]}, {"smiles": "Cc1c(C)c2c(c(C)c1O)CCC(C)(COc1ccc(CC3SC(=O)NC3=O)cc1)O2", "note": "(centres unmarked) [troglitazone]", "values": [{"measurement": "chronic toxicity", "setting": "[2]", "value": "dose and time-dependent toxicity"}, {"measurement": "relative toxicity in pure monolayers versus co-cultures", "setting": "[3]", "value": "more toxic to co-cultures as compared to pure monolayers"}, {"measurement": "reduction of viability", "setting": "[3]; rat, 24 h, 170 μM", "value": "~44", "unit": "%"}, {"measurement": "concentration giving ~44% reduction of viability", "setting": "[4]", "value": 227, "unit": "µM"}]}, {"smiles": "O=c1cc(C(F)(F)F)c2ccc(OCc3ccccc3)cc2o1", "note": "[BFC]", "values": [{"measurement": "rate of BFC metabolism relative to rate of MFC metabolism", "setting": "[5]; rat co-cultures, day 14", "value": "~12", "unit": "fold"}, {"measurement": "rate of BFC dealkylation in rat relative to human co-cultures", "setting": "[5]; rat, human", "value": "~18", "unit": "fold"}]}, {"smiles": "O=c1cc(-c2ccccc2)oc2ccc3ccccc3c12", "note": "[β-Naphthoflavone]", "values": [{"measurement": "induction of CYP1A2 activity", "setting": "[6]", "value": "induced CYP1A2 activity in a dose and time-dependent manner"}]}, {"smiles": "COc1ccc(CN(CCN(C)C)c2ccccn2)cc1", "note": "[pyrilamine]", "values": [{"measurement": "relative toxicity in pure monolayers versus co-cultures", "setting": "[3]", "value": "more toxic to pure monolayers as compared to co-cultures"}, {"measurement": "TC50", "setting": "[3]; rat, 24 h", "value": "1 to 1.2", "unit": "mM"}, {"measurement": "viability relative to untreated controls", "setting": "[3]; rat, 24 h", "value": "greater than 80%"}, {"measurement": "TC50", "setting": "[3]; rat, 7 days", "value": "~0.2", "unit": "mM"}, {"measurement": "viability relative to untreated controls", "setting": "[4]", "value": "less than 6%"}]}, {"smiles": "[Cd]", "note": "[cadmium]", "values": [{"measurement": "shape of dose-dependent acute toxicity profile", "setting": "[2]; 24 hrs exposure, MTT", "value": "relatively linear toxic profile"}, {"measurement": "TC50 relative to other compounds", "setting": "[2]; concentration producing 50% reduction in mitochondrial activity (MTT) after 24 hours exposure", "value": "three orders-of-magnitude lower than the TC50 values for aspirin and caffeine"}]}, {"smiles": "CN(C)CCN(Cc1cccs1)c1ccccn1", "note": "[methapyrilene]", "values": [{"measurement": "relative toxicity in pure monolayers versus co-cultures", "setting": "[3]", "value": "more toxic to pure monolayers as compared to co-cultures"}, {"measurement": "TC50", "setting": "[3]; rat, 24 h", "value": "1.4 to 1.6", "unit": "mM"}, {"measurement": "viability relative to untreated controls", "setting": "[3]; rat, 24 h", "value": "greater than 80%"}, {"measurement": "viability relative to untreated controls", "setting": "[4]", "value": "less than 6%"}]}, {"smiles": "COc1c2occc2cc2ccc(=O)oc12", "note": "[Methoxsalen]", "values": [{"measurement": "inhibition of CYP2A6 activity", "setting": "[7]", "value": "dose-dependent inhibition"}]}, {"smiles": "O=c1ccc2ccccc2o1", "note": "[coumarin]", "values": [{"measurement": "coumarin hydroxylation", "setting": "[8]", "value": "unable to hydroxylate coumarin"}, {"measurement": "rate of coumarin hydroxylation", "setting": "[9]", "value": "greater than 6 pmol/min/10^6 cells"}]}, {"smiles": "CC(=O)N1CCN(c2ccc(OCC3COC(Cn4ccnc4)(c4ccc(Cl)cc4Cl)O3)cc2)CC1", "note": "(centres unmarked) [ketoconazole]", "values": [{"measurement": "inhibition of BFC dealkylation", "setting": "[10]", "value": "~33", "unit": "%"}]}]}
